From ChEMBL document CHEMBL1201862, “PubChem BioAssay data set” (2004)
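Assay format: 96-well plates, 48-hour exposure. GI50 is the concentration that inhibits growth by half.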 Active and inactive are the calls of the source. No stated cut-off is given here; in the data, active = GI50 up to about 1.1 µM and inactive = higher.

Tests used:
Assay in all cases: NCI tumour cell line growth inhibition, 48 h
A498 = test system: A498
IGROV-1 = test system: IGROV-1
MOLT-4 = test system: MOLT-4
Hs-578T = test system: Hs-578T
MDA-N = test system: MDA-N
Malme-3M = test system: Malme-3M
MCF7 = test system: MCF7
K562 = test system: K562
TK-10 = test system: TK-10
HCT-116 = test system: HCT-116
SK-OV-3 = test system: SK-OV-3
UACC-62 = test system: UACC-62
NCI-H226 = test system: NCI-H226
OVCAR-4 = test system: OVCAR-4
BT-549 = test system: BT-549
MDA-MB-231 = test system: MDA-MB-231
SF-539 = test system: SF-539
OVCAR-8 = test system: OVCAR-8
HL-60 = test system: HL-60
MDA-MB-435 = test system: MDA-MB-435
SW-620 = test system: SW-620
NCI-H522 = test system: NCI-H522
HOP-62 = test system: HOP-62
A549 = test system: A549
HCC 2998 = test system: HCC 2998
CAKI-1 = test system: CAKI-1
OVCAR-3 = test system: OVCAR-3
SK-MEL-5 = test system: SK-MEL-5
PC-3 = test system: PC-3
EKVX = test system: EKVX
M14 = test system: M14
HT-29 = test system: HT-29
OVCAR-5 = test system: OVCAR-5
HCT-15 = test system: HCT-15
NCI-H460 = test system: NCI-H460
SN12C = test system: SN12C
T47D = test system: T47D
LOX IMVI = test system: LOX IMVI
DU-145 = test system: DU-145
ACHN = test system: ACHN
NCI/ADR-RES = test system: NCI/ADR-RES
UACC-257 = test system: UACC-257
UO-31 = test system: UO-31
SF-268 = test system: SF-268
CCRF-CEM = test system: CCRF-CEM
KM12 = test system: KM12
SK-MEL-2 = test system: SK-MEL-2
786-0 = test system: 786-0
SK-MEL-28 = test system: SK-MEL-28
NCI-H23 = test system: NCI-H23
U-251 = test system: U-251
HOP-92 = test system: HOP-92
RPMI-8226 = test system: RPMI-8226
RXF 393 = test system: RXF 393
SNB-19 = test system: SNB-19
COLO 205 = test system: COLO 205
SF-295 = test system: SF-295
SR = test system: SR
SNB-75 = test system: SNB-75

N=C(N)SCc1cc(Cl)cc(Cl)c1O
GI50 (A498): 22.3 µM (inactive)
GI50 (IGROV-1): 18.5 µM (inactive)
GI50 (MOLT-4): 24.4 µM (inactive)
GI50 (Hs-578T): 20.4 µM (inactive)
GI50 (MDA-N): 16.4 µM (inactive)
GI50 (Malme-3M): 21.6 µM (inactive)
GI50 (MCF7): 25.2 µM (inactive)
GI50 (K562): 19.8 µM (inactive)
GI50 (TK-10): 18.8 µM (inactive)
GI50 (HCT-116): 16.3 µM (inactive)
GI50 (SK-OV-3): 36.1 µM (inactive)
GI50 (UACC-62): 17.3 µM (inactive)
GI50 (NCI-H226): 20.3 µM (inactive)
GI50 (OVCAR-4): 23.3 µM (inactive)
GI50 (BT-549): 18.7 µM (inactive)
GI50 (MDA-MB-231): 15.1 µM (inactive)
GI50 (SF-539): 3.58 µM (inactive)
GI50 (OVCAR-8): 18.3 µM (inactive)
GI50 (HL-60): 3.21 µM (inactive)
GI50 (MDA-MB-435): 19.7 µM (inactive)
GI50 (SW-620): 20.7 µM (inactive)
GI50 (NCI-H522): 15.9 µM (inactive)
GI50 (HOP-62): 18.8 µM (inactive)
GI50 (A549): 20.7 µM (inactive)
GI50 (HCC 2998): 17.7 µM (inactive)
GI50 (CAKI-1): 18.6 µM (inactive)
GI50 (OVCAR-3): 17.2 µM (inactive)
GI50 (SK-MEL-5): 16.6 µM (inactive)
GI50 (PC-3): 19.3 µM (inactive)
GI50 (EKVX): 15.2 µM (inactive)
GI50 (M14): 16.6 µM (inactive)
GI50 (HT-29): 16 µM (inactive)
GI50 (OVCAR-5): 16.3 µM (inactive)
GI50 (HCT-15): 20.1 µM
GI50 (NCI-H460): 18.1 µM (inactive)
GI50 (SN12C): 17.4 µM (inactive)
GI50 (T47D): 20.9 µM (inactive)
GI50 (LOX IMVI): 18.5 µM (inactive)
GI50 (DU-145): 17.6 µM (inactive)
GI50 (ACHN): 19.5 µM (inactive)
GI50 (NCI/ADR-RES): 26.2 µM (inactive)
GI50 (UACC-257): 16.9 µM (inactive)
GI50 (UO-31): 15.5 µM (inactive)
GI50 (SF-268): 21.8 µM (inactive)
GI50 (CCRF-CEM): 13.7 µM (inactive)
GI50 (KM12): 18.4 µM (inactive)
GI50 (SK-MEL-2): 18.2 µM (inactive)
GI50 (786-0): 18 µM (inactive)
GI50 (SK-MEL-28): 22.6 µM (inactive)
GI50 (NCI-H23): 19 µM (inactive)
GI50 (U-251): 15.7 µM (inactive)
GI50 (HOP-92): 15.7 µM (inactive)
GI50 (RPMI-8226): 19.8 µM (inactive)
GI50 (RXF 393): 19.9 µM (inactive)
GI50 (SNB-19): 18.2 µM (inactive)
GI50 (COLO 205): 17.7 µM (inactive)
GI50 (SF-295): 25.5 µM (inactive)

O=C1c2cccc3cccc(c23)C2NCCCN12 (stereo not given)
GI50 (A498): > 100 µM (inactive)
GI50 (IGROV-1): > 100 µM (inactive)
GI50 (MOLT-4): 47.3 µM (inactive)
GI50 (Hs-578T): > 100 µM (inactive)
GI50 (MDA-N): > 100 µM (inactive)
GI50 (Malme-3M): > 100 µM (inactive)
GI50 (MCF7): 95.3 µM (inactive)
GI50 (K562): 70.3 µM (inactive)
GI50 (TK-10): > 100 µM (inactive)
GI50 (HCT-116): > 100 µM (inactive)
GI50 (SK-OV-3): > 100 µM (inactive)
GI50 (UACC-62): > 100 µM (inactive)
GI50 (NCI-H226): 52.8 µM (inactive)
GI50 (OVCAR-4): > 100 µM (inactive)
GI50 (BT-549): > 100 µM (inactive)
GI50 (MDA-MB-231): > 100 µM (inactive)
GI50 (OVCAR-8): > 100 µM (inactive)
GI50 (HL-60): > 100 µM (inactive)
GI50 (MDA-MB-435): > 100 µM (inactive)
GI50 (SW-620): 94 µM (inactive)
GI50 (NCI-H522): 28.8 µM (inactive)
GI50 (HOP-62): > 100 µM (inactive)
GI50 (A549): > 100 µM (inactive)
GI50 (HCC 2998): 62.5 µM (inactive)
GI50 (CAKI-1): 89.3 µM (inactive)
GI50 (OVCAR-3): > 100 µM (inactive)
GI50 (SK-MEL-5): 78.2 µM (inactive)
GI50 (PC-3): > 100 µM (inactive)
GI50 (EKVX): 35.7 µM (inactive)
GI50 (M14): > 100 µM (inactive)
GI50 (HT-29): > 100 µM (inactive)
GI50 (OVCAR-5): > 100 µM (inactive)
GI50 (HCT-15): > 100 µM
GI50 (NCI-H460): > 100 µM (inactive)
GI50 (SN12C): > 100 µM (inactive)
GI50 (T47D): > 100 µM (inactive)
GI50 (LOX IMVI): > 100 µM (inactive)
GI50 (DU-145): > 100 µM (inactive)
GI50 (ACHN): 68.7 µM (inactive)
GI50 (NCI/ADR-RES): 99.1 µM (inactive)
GI50 (UACC-257): > 100 µM (inactive)
GI50 (UO-31): 88.5 µM (inactive)
GI50 (SF-268): > 100 µM (inactive)
GI50 (CCRF-CEM): 37.7 µM (inactive)
GI50 (KM12): > 100 µM (inactive)
GI50 (786-0): > 100 µM (inactive)
GI50 (SK-MEL-28): > 100 µM (inactive)
GI50 (NCI-H23): > 100 µM (inactive)
GI50 (U-251): > 100 µM (inactive)
GI50 (HOP-92): > 100 µM (inactive)
GI50 (RXF 393): 42.4 µM (inactive)
GI50 (SNB-19): > 100 µM (inactive)
GI50 (SR): 71 µM (inactive)
GI50 (COLO 205): > 100 µM (inactive)
GI50 (SNB-75): < 0.01 µM (active)
GI50 (SF-295): > 100 µM (inactive)

NC(=S)NS(=O)(=O)c1ccc(F)cc1F
GI50 (A498): > 100 µM (inactive)
GI50 (IGROV-1): > 100 µM (inactive)
GI50 (MOLT-4): > 100 µM (inactive)
GI50 (Hs-578T): > 100 µM (inactive)
GI50 (MDA-N): > 100 µM (inactive)
GI50 (Malme-3M): > 100 µM (inactive)
GI50 (MCF7): > 100 µM (inactive)
GI50 (K562): > 100 µM (inactive)
GI50 (TK-10): > 100 µM (inactive)
GI50 (HCT-116): > 100 µM (inactive)
GI50 (SK-OV-3): > 100 µM (inactive)
GI50 (UACC-62): > 100 µM (inactive)
GI50 (NCI-H226): > 100 µM (inactive)
GI50 (OVCAR-4): > 100 µM (inactive)
GI50 (BT-549): > 100 µM (inactive)
GI50 (MDA-MB-231): > 100 µM (inactive)
GI50 (SF-539): > 100 µM (inactive)
GI50 (OVCAR-8): > 100 µM (inactive)
GI50 (HL-60): > 100 µM (inactive)
GI50 (MDA-MB-435): > 100 µM (inactive)
GI50 (SW-620): > 100 µM (inactive)
GI50 (NCI-H522): > 100 µM (inactive)
GI50 (HOP-62): > 100 µM (inactive)
GI50 (A549): > 100 µM (inactive)
GI50 (HCC 2998): > 100 µM (inactive)
GI50 (CAKI-1): > 100 µM (inactive)
GI50 (OVCAR-3): > 100 µM (inactive)
GI50 (SK-MEL-5): > 100 µM (inactive)
GI50 (PC-3): > 100 µM (inactive)
GI50 (EKVX): > 100 µM (inactive)
GI50 (M14): > 100 µM (inactive)
GI50 (HT-29): > 100 µM (inactive)
GI50 (OVCAR-5): > 100 µM (inactive)
GI50 (HCT-15): > 100 µM
GI50 (NCI-H460): > 100 µM (inactive)
GI50 (SN12C): > 100 µM (inactive)
GI50 (T47D): > 100 µM (inactive)
GI50 (LOX IMVI): > 100 µM (inactive)
GI50 (DU-145): > 100 µM (inactive)
GI50 (ACHN): > 100 µM (inactive)
GI50 (NCI/ADR-RES): > 100 µM (inactive)
GI50 (UACC-257): > 100 µM (inactive)
GI50 (SF-268): > 100 µM (inactive)
GI50 (CCRF-CEM): > 100 µM (inactive)
GI50 (KM12): > 100 µM (inactive)
GI50 (SK-MEL-2): > 100 µM (inactive)
GI50 (786-0): > 100 µM (inactive)
GI50 (SK-MEL-28): > 100 µM (inactive)
GI50 (NCI-H23): > 100 µM (inactive)
GI50 (U-251): > 100 µM (inactive)
GI50 (HOP-92): > 100 µM (inactive)
GI50 (RPMI-8226): > 100 µM (inactive)
GI50 (RXF 393): > 100 µM (inactive)
GI50 (SNB-19): > 100 µM (inactive)
GI50 (COLO 205): > 100 µM (inactive)
GI50 (SNB-75): > 100 µM (inactive)
GI50 (SF-295): > 100 µM (inactive)
